Measured values taken from ChEMBL document CHEMBL1148828, “Deoxycholic acid-derived tetraoxane antimalarials and antiproliferatives(1)” (J Med Chem, 2007).

How the values were obtained:
Plasmodium falciparum [1] = assay: Antimalarial activity against Plasmodium falciparum W2; assay type: functional, organism-based
Plasmodium falciparum [2] = assay: Antimalarial activity against Plasmodium falciparum D6; assay type: functional, organism-based
Plasmodium falciparum [3] = assay: Antimalarial activity against Plasmodium falciparum TM91C235; assay type: functional, organism-based
NCI = assay: Growth inhibition of human NCI DTP 60 cells; assay type: functional
LOX IMVI = assay: Antiproliferative activity against human LOX IMVI cells after 48 hrs; assay type: functional
DU-145 = assay: Antiproliferative activity against human DU145 cells after 48 hrs; assay type: functional; details: DU-145, 48 h
CAKI-1 = assay: Antiproliferative activity against human CAKI1 cells after 48 hrs; assay type: functional; details: CAKI-1, 48 h; for CC50: read-out: LC50 (the source's name)
HOP-92 = assay: Antiproliferative activity against human HOP92 cells after 48 hrs; assay type: functional; details: Homo sapiens, HOP-92, 48 h
UO-31 = assay: Antiproliferative activity against human UO31 cells after 48 hrs; assay type: functional; details: Homo sapiens, UO-31, 48 h
786-0 = assay: Antiproliferative activity against human 786-0 cells after 48 hrs; assay type: functional
ACHN = assay: Antiproliferative activity against human ACHN cells after 48 hrs; assay type: functional
[4] = Plasmodium falciparum, TM91C235

Row | SMILES | IC50 (Plasmodium falciparum [1]) [nM] | IC90 (Plasmodium falciparum [1]) [nM] | IC50 (Plasmodium falciparum [2]) [nM] | IC90 (Plasmodium falciparum [2]) [nM] | IC50 (Plasmodium falciparum [3]) [nM] | IC90 (Plasmodium falciparum [3]) [nM] | IC50 (Plasmodium falciparum [1]; Plasmodium falciparum, W2) [nM] | IC90 (Plasmodium falciparum [1]; Plasmodium falciparum, W2) [nM] | IC50 (Plasmodium falciparum [2]; Plasmodium falciparum, D6) [nM] | IC90 (Plasmodium falciparum [2]; Plasmodium falciparum, D6) [nM] | IC90 (Plasmodium falciparum [3]; [4]) [nM] | also measured
1 | CCCNC(=O)CC[C@@H](C)[C@H]1CC[C@H]2[C@@H]3CC[C@@H]4CC5(CC[C@]4(C)[C@H]3C[C@H](OC(C)=O)[C@]12C)OOC1(CCC(C)CC1)OO5 (stereo in doubt; 15) | 33.8 | 53.7 | 29.3 | 39.3 | 34.1 | 50.7 | – | – | – | – | – | GI50 (NCI; Homo sapiens, NCI): 62 nM; GI50 (LOX IMVI; Homo sapiens, LOX IMVI, 48 h): 116 nM; LC50 (concentration killing 50% of cells) (LOX IMVI; Homo sapiens, LOX IMVI, 48 h): 1680 nM; TGI (LOX IMVI; Homo sapiens, LOX IMVI, 48 h): 391 nM; GI50 (DU-145): 663 nM; LC50 (concentration killing 50% of cells) (DU-145): 3910 nM; TGI (DU-145): 1610 nM; GI50 (CAKI-1): 62.2 nM; TGI (CAKI-1): 163 nM; CC50 (CAKI-1): 429 nM; GI50 (HOP-92): 134 nM; LC50 (concentration killing 50% of cells) (HOP-92): 4530 nM; TGI (HOP-92): 873 nM; GI50 (UO-31): 122 nM; TGI (UO-31): 329 nM
2 | C[C@@H]1CC[C@H]2[C@@H](C)C(=O)O[C@@H]3O[C@@]4(C)CC[C@@H]1[C@]32OO4 [ARTEMISININ] | – | – | – | – | – | – | 6.7 | 11.5 | 9 | 12.8 | 17.4 | IC50 (Plasmodium falciparum [3]; [4]): 13 nM
3 | CC(=O)O[C@H]1C[C@H]2[C@@H](CC[C@@H]3CC4(CC[C@@]32C)OOC2(CCC(C)CC2)OO4)[C@@H]2CC[C@H]([C@H](C)CCC(=O)NCCN(C)C)[C@@]12C (stereo in doubt; 17) | 136 | 155 | 104 | 148 | 136 | 153 | – | – | – | – | – | GI50 (NCI; Homo sapiens, NCI): < 5 nM; GI50 (786-0): 81.3 nM; TGI (786-0): 149 nM; LC50 (concentration killing 50% of cells) (LOX IMVI): 56.4 nM; TGI (LOX IMVI): 5.18 nM; GI50 (CAKI-1): 602 nM; TGI (CAKI-1): 1400 nM; CC50 (CAKI-1): 3250 nM; GI50 (ACHN): 439 nM; LC50 (concentration killing 50% of cells) (ACHN): 2300 nM; TGI (ACHN): 1050 nM
4 | CC(=O)O[C@H]1C[C@H]2[C@@H]([C@H](OC(C)=O)C[C@@H]3CC4(CC[C@@]32C)OOC2(CCCCC2)OO4)[C@@H]2CC[C@H]([C@H](C)CCC(=O)Nc3ccccc3)[C@@]12C | – | – | – | – | – | – | 11.2 | 25.9 | 6.7 | 11.7 | 27.8 | IC50 (Plasmodium falciparum [3]; [4]): 10.3 nM
5 | CC(=O)O[C@H]1C[C@H]2[C@@H](CC[C@@H]3CC4(CC[C@@]32C)OOC2(CCC(C)CC2)OO4)[C@@H]2CC[C@H]([C@H](C)CCC(N)=O)[C@@]12C (stereo in doubt; 13) | 19.4 | 118 | 22.9 | 31.4 | 28 | 53.5 | – | – | – | – | – | –
6 | CC(=O)O[C@H]1C[C@H]2[C@@H](CC[C@@H]3CC4(CC[C@@]32C)OOC2(CCC(C)CC2)OO4)[C@@H]2CC[C@H]([C@H](C)CCC(=O)O)[C@@]12C (stereo in doubt; 4c) | 42.2 | 89.7 | 19.2 | 31.7 | 31.8 | 93 | – | – | – | – | – | –
7 | CC(=O)O[C@H]1C[C@H]2[C@@H]([C@H](OC(C)=O)C[C@@H]3CC4(CC[C@@]32C)OOC2(CCC(C)CC2)OO4)[C@@H]2CC[C@H]([C@H](C)CCC(=O)Nc3ccccc3)[C@@]12C (stereo in doubt; 20) | 7.86 | 10.1 | 5.48 | 8.07 | 6.24 | 11 | – | – | – | – | – | GI50 (NCI): 160 nM; LC50 (concentration killing 50% of cells) (LOX IMVI): 1890 nM; GI50 (LOX IMVI; Homo sapiens, LOX IMVI, 48 h): 161 nM; TGI (LOX IMVI; Homo sapiens, LOX IMVI, 48 h): 417 nM
8 | O[C@@H](c1cc(C(F)(F)F)nc2c(C(F)(F)F)cccc12)[C@H]1CCCCN1 [MEFLOQUINE] | – | – | – | – | – | – | – | 8.41 | – | 21.6 | 65.7 | –
9 | CCCN(CCC)C(=O)CC[C@@H](C)[C@H]1CC[C@H]2[C@@H]3CC[C@@H]4CC5(CC[C@]4(C)[C@H]3C[C@H](OC(C)=O)[C@]12C)OOC1(CCCCC1)OO5 | – | – | – | – | – | – | 150 | 169 | 179 | 197 | 203 | IC50 (Plasmodium falciparum [3]; [4]): 169 nM
10 | CCN(CC)CCCC(C)Nc1ccnc2cc(Cl)ccc12 (configuration not stated) [CHLOROQUINE] | – | – | – | – | – | – | – | 349 | – | 13.7 | – | –
11 | COC(=O)CC[C@@H](C)[C@H]1CC[C@H]2[C@@H]3CC[C@@H]4CC5(CC[C@]4(C)[C@H]3C[C@H](OC(C)=O)[C@]12C)OOC1(CCCCC1)OO5 | – | – | – | – | – | – | 112 | 170 | 201 | 258 | – | –
